How the values were obtained:
Homo sapiens = species on record: Homo sapiens; assay: tissue or blood; type: functional, organism-based; details: Plasma
Histamine H1 receptor = Histamine H1 receptor (Rattus norvegicus, UniProt P31390); assay: Binding affinity against Histamine H1 receptor using receptor binding assay in rat brain membranes; type: cell membranes
Histamine H1 receptor, sequence (P31390 whole entry): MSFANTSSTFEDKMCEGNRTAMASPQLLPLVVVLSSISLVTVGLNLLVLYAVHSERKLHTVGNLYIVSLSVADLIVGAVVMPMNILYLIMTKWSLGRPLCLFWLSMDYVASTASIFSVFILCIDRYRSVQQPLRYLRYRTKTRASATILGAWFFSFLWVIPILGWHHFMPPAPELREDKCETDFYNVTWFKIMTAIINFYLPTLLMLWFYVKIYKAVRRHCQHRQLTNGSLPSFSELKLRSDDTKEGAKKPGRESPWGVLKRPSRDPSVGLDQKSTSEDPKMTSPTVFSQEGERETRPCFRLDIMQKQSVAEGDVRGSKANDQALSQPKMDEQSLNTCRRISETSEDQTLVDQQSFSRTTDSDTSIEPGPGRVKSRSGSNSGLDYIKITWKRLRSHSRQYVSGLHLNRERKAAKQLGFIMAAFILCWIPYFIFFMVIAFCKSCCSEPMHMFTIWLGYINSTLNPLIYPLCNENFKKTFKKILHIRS

Structure (SMILES) | IC50 (Homo sapiens) | Ki (Histamine H1 receptor)
CCCC(=O)N1CCN(C2c3ccc(Cl)cc3CCc3cccnc32)CC1 (stereo not given) | 15 µM | 3.6 µM
CCC(=O)N1CCC(=C2c3ccc(Cl)cc3CCc3cccnc32)CC1 | 2.4 µM | –
CC(=O)N1CCN(C2c3ccc(Cl)cc3C=Cc3cccnc32)CC1 (stereo not given) | 0.66 µM | –
Clc1ccc2c(c1)CCc1cccnc1C2N1CCNCC1 (stereo not given) | ≥ 23 µM | 0.0064 µM
CC(=O)N1CCCN(C2c3ccc(Cl)cc3CCc3cccnc32)CC1 (stereo not given) | 13 µM | 0.97 µM
CN1CCN(C2c3ccc(Cl)cc3CCc3cccnc32)CC1 (stereo not given) | 28 µM | 0.0065 µM
CC(=O)N1CCN([C@@H]2c3ccc(Cl)cc3CCc3cccnc32)CC1 | 1.3 µM | 3.6 µM
CC(=O)N1CCN([C@H]2c3ccc(Cl)cc3CCc3cccnc32)CC1 | 0.21 µM | > 10 µM
O=CN1CCN(C2c3ccc(Cl)cc3CCc3cccnc32)CC1 (stereo not given) | 12 µM | 0.29 µM
CC(=O)N1[C@H](C)CN(C2c3ccc(Cl)cc3CCc3cccnc32)C[C@@H]1C (stereo not given in full) | > 50 µM | ≥ 7.1 µM
CCOC(=O)N1CCN(C2c3ccc(Cl)cc3CCc3cccnc32)CC1 (stereo not given) | > 50 µM | ≥ 3.8 µM
O=CN1CCC(=C2c3ccc(Cl)cc3CCc3cccnc32)CC1 | 14 µM | –
CCC(=O)N1CCN(C2c3ccc(Cl)cc3CCc3cccnc32)CC1 (stereo not given) | 1.4 µM | 2.5 µM
CC(=O)N1CCN(C2c3ccc(Cl)cc3CCc3cccnc32)CC1 (stereo not given) | 0.4 µM | 5.4 µM
O=C1CCC2CN(C3c4ccc(Cl)cc4CCc4cccnc43)CCN12 (stereo not given) | 1.8 µM | 3.6 µM
CC(=O)N1CCN(C2c3ccccc3CCc3ccccc32)CC1 | 26 µM | 3.7 µM
CCCC(=O)N1CCC(=C2c3ccc(Cl)cc3CCc3cccnc32)CC1 | 33 µM | –
CC(=O)N1CCC(=C2c3ccc(Cl)cc3C=Cc3cccnc32)CC1 | 0.42 µM | –
CN1CCN(C2c3ccc(Cl)cc3CCc3cccnc32)CC1=O (stereo not given) | > 50 µM | 0.049 µM
CC(=O)N1CCN(C2c3ccc(Cl)cc3CCc3cccnc32)C[C@@H]1C (stereo not given in full) | 14 µM | ≥ 5 µM
CC(=O)N1CCC(=C2c3ccccc3CCc3ccccc32)CC1 | 41 µM | –
O=C1CN(C2c3ccc(Cl)cc3CCc3cccnc32)CCN1 (stereo not given) | > 50 µM | 0.14 µM
CN1CCC(=C2c3ccc(Cl)cc3CCc3cccnc32)CC1 | ≥ 50 µM | –
CN(C)CCC(c1ccc(Cl)cc1)c1ccccn1 (stereo not given) [CHLORPHENIRAMINE] | > 50 µM | –
